From EP0708091A1, “Indoloylguanidine derivatives” (SUMITOMO PHARMACEUTICALS COMPANY, LIMITED, priority 1994, dated 1996)
Where a name gives a salt, the structure may show the parent alone.

Molecular target: T1, Na⁺/H⁺ exchanger (Rattus norvegicus, UniProt P26431)
T1 construct: using the vascular smooth muscle cells isolated from the rat thoracic aorta; endogenous in cells; host or cells: primary vascular smooth muscle cells isolated from rat thoracic aorta
Assay: Inhibition of Na+/H+ exchanger activity in vitro (change in cell viability during acid loading)
Assay type: cell-based
Conditions: minimum effective concentration (MEC), vascular smooth muscle cells isolated from the rat thoracic aorta
Experimental: Inhibition of Na+/H+ exchanger activity in vitro Method:
The experiment was performed by modifying the method of Mungre et al. described in Exp. Cell Res., 193, 236 (1991). That is, inhibition of the Na⁺/H⁺ exchanger activity was evaluated by the change in cell viability during acid loading, using the vascular smooth muscle cells isolated from the rat thoracic aorta.
The compounds of the present invention shown in Examples were evaluated by the minimum effective concentration (MEC) for the inhibition of the Na⁺/H⁺ exchanger activity.

T1 sequence (P26431 whole entry): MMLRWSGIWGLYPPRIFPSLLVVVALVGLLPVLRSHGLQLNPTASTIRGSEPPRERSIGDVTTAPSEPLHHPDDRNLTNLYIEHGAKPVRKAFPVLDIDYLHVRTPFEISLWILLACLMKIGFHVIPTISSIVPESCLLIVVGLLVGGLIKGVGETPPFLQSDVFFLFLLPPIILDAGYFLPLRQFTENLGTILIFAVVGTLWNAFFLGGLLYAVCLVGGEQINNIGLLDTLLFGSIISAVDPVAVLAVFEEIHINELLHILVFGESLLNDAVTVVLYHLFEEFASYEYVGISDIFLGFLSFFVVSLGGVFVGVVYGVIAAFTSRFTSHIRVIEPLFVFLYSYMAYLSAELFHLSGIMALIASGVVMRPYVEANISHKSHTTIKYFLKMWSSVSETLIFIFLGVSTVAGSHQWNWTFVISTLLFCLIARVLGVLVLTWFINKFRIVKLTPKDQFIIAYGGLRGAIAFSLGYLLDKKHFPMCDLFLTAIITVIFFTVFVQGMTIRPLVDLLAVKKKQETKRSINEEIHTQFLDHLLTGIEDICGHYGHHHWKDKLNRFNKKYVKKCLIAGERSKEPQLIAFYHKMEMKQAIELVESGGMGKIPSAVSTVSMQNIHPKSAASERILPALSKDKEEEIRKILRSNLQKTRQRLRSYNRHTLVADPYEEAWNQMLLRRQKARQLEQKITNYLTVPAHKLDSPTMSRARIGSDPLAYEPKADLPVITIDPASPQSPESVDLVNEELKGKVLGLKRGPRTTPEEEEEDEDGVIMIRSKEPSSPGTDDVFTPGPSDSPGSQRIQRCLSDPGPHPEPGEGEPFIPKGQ

Row | SMILES | Inhibition of Na^+/H^+ Exchanger MEC
1 | CN(C)c1nc(N)c(C(=O)N=C(N)N)nc1Cl [Dimethyl amiloride, reference compound] | 3.0 µM
2 | NC(N)=NC(=O)c1nc(Cl)c(N2CCCCCC2)nc1N [5-Hexamethylene amiloride, reference compound] | 0.3 µM
3 | N=C(N)NC(=O)c1cc2ccccc2n1CCN1CCCC1 [Example 144, 1-[2-[(N-Pyrrolidinyl)ethyl]-2-indoloylguanidinedihydrochloride] | >10 µM
4 | CN(C)CCCOc1ccc(Cl)c2cc(C(=O)NC(=N)N)n(C)c12 [Example 74, 4-Chloro-7-(3-dimethylaminopropoxy)-l-methyl-2-indoloylguanidine dihydrochloride] | 0.1 µM
5 | Cn1c(C(=O)NC(=N)N)cc2c(Cl)cc(OCCN)cc21 [Example 175, 6-(2-Aminoethoxy)-4-chloro-l-methyl-2-indoloylguanidine dihydrochloride] | 0.03 µM
